Data reported in US10702498B2 (priority 2015, dated 2020).
“Also recorded” adds a separate entry of the source.

Tests used:
mice [1] = experiment: Conditioned place preference; type: in vivo; settings: mouse
Method: On day 1 (preconditioning day), mice were placed in the central chamber and allowed to explore freely for 30 minutes. Time spent in each compartment was used to estimate baseline chamber preferences and mice showing specific chamber bias more than 70% were not studied further. On days 2-9 (conditioning days) mice were injected with either vehicle or drug and paired with either the white mesh or the black rod chambers. All mice received vehicle on days 2, 4, 6, 8 and drug on days 3, 5, 7, 9. On day 10 (test day), mice were again placed in the central chamber as on day 1 and allowed to explore freely for 30 minutes. Time spent in each chamber was expressed as percentage preference.

C57BL/6J mice [2] = experiment: Hot-plate analgesia assay; type: in vivo; settings: mouse
[3] = tested on: Oprm1−/− and wild-type C57Bl/6J mice; experiment: Hot-plate: affective/reflexive subcategorization and μOR knockout mice; type: in vivo, mouse
C57BL/6J mice [4] = experiment: Tail-flick assay; type: in vivo; settings: mouse
[5] = biological target: T1, μOR β-arrestin2 recruitment (Homo sapiens (Human), UniProt P35372); experiment: β-Arrestin recruitment, PathHunter enzyme complementation assay (DiscoveRx OPRM1 CHO-K1); type: cell-based
mice [6] = experiment: Formalin injection assay; type: in vivo; settings: mouse
[7] = tested on: μOR Gi/o versus β-arrestin signaling; experiment: Ligand bias calculation (operational model)
hMOR + Gqi5 = hMOR + Gqi5 (Homo sapiens (Human), UniProt P35372); experiment: IP accumulation assay; type: cell-based; settings: % morphine
hKOR = hKOR (Homo sapiens (Human), UniProt P41145); experiment: Receptor binding, [3H]diprenorphine; settings: hKOR [3H]dyprenorphine Ki
humanDOR = humanDOR (Homo sapiens (Human), UniProt P41143); experiment: Receptor binding, [3H]diprenorphine
μOR [8] = biological target: T2, μOR (Homo sapiens (Human), UniProt P35372); experiment: cell-based; type: cell-based
δOR = δOR (Homo sapiens (Human), UniProt P41143); experiment: Gi/o Glosensor assay
μOR [9] = biological target: T2, μOR; experiment: Calcium release (FLIPR); type: cell-based
Method: Calcium release was measured using a FLIPR^TETRA fluorescence imaging plate reader (Molecular Devices). Calcium release experiments were run in parallel to Gi/o Glosensor experiments with the same HEKT cells transfected with μOR, except cells for FLIPR were plated in poly-lysine coated 384-well black clear bottom cell culture plates. […] Dye was incubated for 1 hour at 37° C. Afterwards, cells were equilibrated to room temperature, and fluorescence in each well was read for the initial 10 seconds to establish a baseline. Afterwards, 10 μL of drug (3×) was added per well and the maximum-fold increase in fluorescence was determined as fold-over-baseline. Drug solutions used for the FLIPR assay were exactly the same as used for Gi/o Glosensor experiments. To activate endogenous Gq-coupled receptors as a positive control for calcium release, TFLLR-NH2 (10 μM, PAR-1 selective agonist) was used.

316 other GPCRs = experiment: PRESTO-Tango GPCRome β-arrestin recruitment counter-screen; type: cell-based; settings: 10 μM screen, hits re-tested in full dose-response
Source text: Potential positive receptor hits were defined as those that increase the relative luminescence value by two fold. […] A number of false positive hits were discounted by this approach.

[10] = biological target: T1, μOR β-arrestin2 recruitment; experiment: β-Arrestin2 recruitment without GRK2 co-expression (BRET); type: cell-based
[11] = biological target: human μOR β-arrestin2 recruitment + GRK2 (Homo sapiens (Human), UniProt P35372); experiment: β-Arrestin2 recruitment with GRK2 co-expression (BRET); type: cell-based
mice [12] = experiment: Open field locomotor response; settings: mouse
mice [13] = experiment: Catalepsy bar test; settings: mouse
nociceptin receptor = nociceptin receptor (Homo sapiens (Human), UniProt P41146); experiment: Gi/o Glosensor assay
mice [14] = experiment: Accumulated fecal boli quantification (constipation); settings: mouse
[15] = Pharmacokinetics: serum and brain concentrations; type: in vivo; settings: mouse
Method: Studies were performed by the Preclinical Therapeutics Core and the Drug Studies Unit at the University of California San Francisco. […] All studies were performed with approved mouse protocols from the institutional animal care and use committees.

κOR = κOR (Homo sapiens (Human), UniProt P41145); experiment: Gi/o Glosensor assay (agonist and antagonist mode)
μOR [16] = biological target: T2, μOR; experiment: Receptor internalization (PathHunter GPCR internalization, U2OS cells); type: cell-based
μOR [17] = biological target: T2, μOR; experiment: biochemical; type: binding
μOR [18] = biological target: T2, μOR; settings: no Ki given

T2 sequence (P35372 whole entry): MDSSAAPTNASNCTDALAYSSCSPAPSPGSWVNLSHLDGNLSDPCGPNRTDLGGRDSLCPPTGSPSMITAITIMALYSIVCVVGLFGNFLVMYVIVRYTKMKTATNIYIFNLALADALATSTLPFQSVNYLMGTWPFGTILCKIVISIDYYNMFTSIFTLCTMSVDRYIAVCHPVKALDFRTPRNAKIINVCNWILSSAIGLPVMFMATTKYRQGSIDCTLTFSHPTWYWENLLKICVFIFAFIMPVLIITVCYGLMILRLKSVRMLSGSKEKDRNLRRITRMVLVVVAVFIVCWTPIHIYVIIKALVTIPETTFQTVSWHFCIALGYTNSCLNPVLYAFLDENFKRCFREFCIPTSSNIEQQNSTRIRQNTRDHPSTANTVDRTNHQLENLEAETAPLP
Chain of hKOR (P41145 whole entry): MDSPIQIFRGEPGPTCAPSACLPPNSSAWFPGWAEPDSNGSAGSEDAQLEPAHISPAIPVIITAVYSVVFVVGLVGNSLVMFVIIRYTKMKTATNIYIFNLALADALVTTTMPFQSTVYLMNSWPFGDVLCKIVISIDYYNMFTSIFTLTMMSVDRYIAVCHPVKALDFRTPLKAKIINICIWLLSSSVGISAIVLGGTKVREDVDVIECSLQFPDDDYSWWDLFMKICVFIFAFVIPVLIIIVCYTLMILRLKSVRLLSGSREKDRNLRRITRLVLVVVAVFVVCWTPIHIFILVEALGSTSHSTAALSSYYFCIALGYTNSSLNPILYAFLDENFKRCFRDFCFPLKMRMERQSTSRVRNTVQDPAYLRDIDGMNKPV
Chain of humanDOR (P41143 whole entry): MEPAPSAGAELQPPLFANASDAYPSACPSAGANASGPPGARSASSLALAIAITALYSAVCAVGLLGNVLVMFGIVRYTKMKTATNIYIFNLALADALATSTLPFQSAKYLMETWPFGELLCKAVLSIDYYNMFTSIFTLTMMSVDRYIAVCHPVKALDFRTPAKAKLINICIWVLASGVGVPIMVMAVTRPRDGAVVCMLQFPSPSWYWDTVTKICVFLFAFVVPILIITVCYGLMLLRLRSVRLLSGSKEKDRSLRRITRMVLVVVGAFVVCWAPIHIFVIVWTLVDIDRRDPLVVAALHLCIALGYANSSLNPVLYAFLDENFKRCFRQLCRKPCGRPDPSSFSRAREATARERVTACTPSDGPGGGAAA

## C[C@@H](Cc1ccsc1)NC(=O)NC[C@H](Cc1ccc(O)cc1)N(C)C [PZM21, 1-[(S)-2-(Dimethylamino)-3-(4-hydroxyphenyl)propyl]-3-((S)-1-(thiophen-3-yl)propan-2-yl)urea]
Mice [1]
  conditioned place preference: does not induce a conditioned place preference response
C57BL/6J mice [2]; s.c.
  hot-plate analgesia: dose-dependent analgesia
C57BL/6J mice [2]; 15 minutes after the highest dose tested
  hot-plate percent maximal possible effect (% MPE): 87%
[3]; hot-plate
  analgesia in μOR knockout mice: genetic knockout of the μOR completely ablates the observed analgesic response
[3]; mouse hot-plate
  affective versus reflexive component of pain: only modulates the affective component of pain; also recorded: solely confers analgesia to the affective component of pain
C57BL/6J mice [4]
  tail-flick analgesia: no activity in a tail flick assay; also recorded: no analgesic effect
[5]
  β-arrestin2 recruitment in PathHunter assay: undetectable β-arrestin2 recruitment; also recorded: minimal recruitment of β-arrestin2; also recorded: no detectable 3-arrestin2 recruitment
Mice [6]
  formalin injection nociception: active in a formalin injection nociception assay
[7]
  signaling bias: undistinguishable from TRV130; also recorded: substantially exceeded that of herkinorin
hMOR + Gqi5
  hMOR + Gqi5 IP accumulation assay efficacy a: a: 73%
hKOR
  Ki: 33 ± 5.6 nM
humanDOR
  Ki: 470 ± 98 nM
μOR [8]
  Gi/o activation / μOR agonist activity: robust μOR agonist activity
  effect on cAMP levels with pertussis toxin: eliminated by pertussis toxin
δOR; read-out: Gi/o (Glosensor) Emax (%) δOR
  Emax: 78%
δOR; selectivity
  weaker δOR agonist than μOR agonist: 500 fold
μOR [9]
  calcium release: no activity was observed in a calcium release assay
316 other GPCRs
  agonism against 316 other GPCRs: no potent activity was confirmed with a full dose-response experiment
[10]
  β-arrestin2 recruitment in the absence of GRK2: no β-arrestin2 recruitment
[11]
  arrestin recruitment with over-expressed GRK2: weak arrestin recruitment efficacy compared to DAMGO and even to morphine; also recorded: we observe arrestin recruitment
Mice [12]
  open field locomotion: does not induce open field locomotion; also recorded: no apparent effect on locomotion versus vehicle
Mice [13]
  cataleptic effect: does not induce cataleptic behavior; also recorded: does not reflect a cataleptic effect
Nociceptin receptor
  nociceptin receptor agonist activity: no detectable KOR or nociceptin receptor agonist activity
Mice [14]
  constipation effect / defecation: reduced constipatory effects as compared to morphine; also recorded: substantially less than morphine
[15]
  blood brain barrier penetration: substantial fraction of PZM21 crosses the blood brain barrier
κOR
  activity at KOR (antagonist mode, words): antagonist at KOR
  κOR agonist activity: no detectable KOR or nociceptin receptor agonist activity; also recorded: lack of agonist activity
μOR [16]
  μOR internalization: minimal level of μOR internalization compared to DAMGO and morphine

## CCN1CCC[C@@H](NC(=O)NCCc2ccc(OC(C)C)cc2)C1 [compound 6]
μOR [17]
  Ki: 10000 nM

## O=C(Cc1cn2ccccc2n1)NCC1(c2ccccc2)CCC1 [compound 9]
μOR [18]
  μOR binding, given as <50%: <50%
